Measurements from PubChem BioAssay AID2060624 (Molecular Pharmacology Branch, DTP, NCI, 2025).
pIC50: −log10 of the molar value.

Tested on: 217524-143-R1-J4-PDC spheroids with HUVEC/MSC, viability
Assay: Anticancer human tumor 217524-143-R1-J4-PDC patient-derived pancreatic carcinoma cell line growth inhibition [CLK]
Settings: for pIC50: curve of first compound; for viability, T/C: stronger effect = lower value
Source text: A high-throughput screen of multi-cell type tumor spheroids was designed to identify active combinations of […] and targeted small molecules. Complex spheroids include a stromal component modeled by human endothelial cells (HUVEC) and fibroblasts modeled by human mesenchymal stem cells (MSCs). The concentration ranges selected for each drug and investigational agent were based upon clinically achievable concentrations if the clinical Cmax of the agent was known.
Compounds. The drugs and investigational agents: cirtuvivint (SM08502; NSC835563), CC-671 (NSC850746), vemurafenib (NSC761431), tapotoclax (NSC804041), sotorasib (NSC818433), adagrasib (NSC831453), MRTX-1133 (NSC836407), BAY2416964 (NSC825713), copanlisib (NSC816437), inavolisib (NSC800729), abemaciclib (NSC768073), osimertinib (NSC779217), entinostat (NSC756642), eltanexor (KPT-8602, NSC794443), venetoclax (NSC766270), ceralasertib (NSC777638), bortezomib (NSC756655), olaparib (NSC753686), talazoparib (NSC767125), alisertib (NSC759677), peposertib (NSC802822), gemcitabine (NSC613327), 5-fluorouracil (NSC19893), SN-38 (NSC673596), oxaliplatin (NSC266046), paclitaxel (NSC125973), and doxorubicin (NSC123127), were obtained from the National Cancer Institute (NCI) Developmental Therapeutics Program Chemical Repository. The FDA-approved anticancer drug set is available from the Developmental Therapeutics Program at https://dtp.cancer.gov/organization/dscb/obtaining/available plates.htm. […] The stock solutions were prepared in dimethyl sulfoxide (DMSO, Sigma-Aldrich, St. Louis, MO, cat. D2650), except for the platinum complexes which were prepared in saline (Quality Biological, Gaithersburg, MD, cat. 114-055-101), at 800-fold the tested concentration and stored at -70 degrees C prior to their use. All drugs and investigational agents were tested over a range starting from a high concentration at or near the clinical Cmax and decreasing in half-log increments. If the clinical Cmax for an agent had not been determined, the highest concentration tested was 10 microM.
Cell Culture. All cells were maintained in an incubator at 37 degrees C and 5% CO2 with 95% humidity. The PDC lines were cultured according to standard operating procedures established by the NCI PDMR. Briefly, all PDCs were thawed and cultured in Matrigel-coated flasks prepared with a working solution of 1X Ham's F-12 nutrient mix, without supplementation (Invitrogen, Waltham, MA, cat. 11765054), 100 U/mL penicillin-streptomycin (Invitrogen, cat. 15140122), and 2.5% Matrigel (Corning Inc., Corning, NY, cat. 354248) for the first three passages. The 947758-054-R-J2-PDC line was cultured in 6B/Colon 1A media, which includes advanced DMEM/F-12 (Thermo Fisher Scientific, cat. 12634028), 10 mM HEPES (Thermo Fisher Scientific, cat. 15630080), 1X GlutaMAX supplement (Thermo Fisher Scientific, cat. 35050061), 0.1 mg/mL primocin (InvivoGen, cat. ant-pm-2), 10% defined fetal bovine serum, heat inactivated (HyClone Laboratories Inc., cat. SH30070.03HI), 1.25 mM N-Acetyl-L-cysteine (Sigma-Aldrich, cat. A9165), 10 mM nicotinamide (Sigma-Aldrich, cat. N0636), 1X B-27 supplement (Thermo Fisher Scientific, cat. 17504044), 1X N-2 supplement (Thermo Fisher Scientific, cat. 17502048), and 10 microM Y-27632 dihydrochloride (Tocris Bioscience, cat. 1254). The 876862-298-R-J1-PDC was cultured in 6E media, which includes all 6B/Colon 1A media components plus 50% L-WRN conditioned media (ATCC, cat. CRL-3276), 50 ng/mL recombinant human EGF recombinant protein (hEGF; Thermo Fisher Scientific, cat. PHG0311), 10 ng/mL recombinant human fibroblast growth factor 10 (hGFG-10; PeproTech, cat. 100-26), 1 ng/mL recombinant human fibroblast growth factor 2 (hFGF-2; PeproTech, cat. 100-18B), and 1 µM prostaglandin E2 (PGE2; Tocris, cat. 2296). The 227483-062-R1-J1-PDC line was cultured in Panc media, containing all 6E components except hFGF-2, with the addition of 500 nM SB-431542 (Selleckchem, cat. S1067) and 10 nM gastrin (Tocris, cat. 3006). […]

[1] = second compound 0.0316 µM, first compound 0.0316 µM
[2] = second compound 0.0316 µM, first compound 0.1 µM
[3] = second compound 0.0316 µM, first compound 0.316 µM
[4] = second compound 0.0316 µM, first compound 1 µM
[5] = second compound 0.0316 µM, first compound 3.16 µM
[6] = second compound 0.0316 µM, first compound 10 µM
[7] = second compound 0.1 µM, first compound 0.0316 µM
[8] = second compound 0.1 µM, first compound 0.1 µM
[9] = second compound 0.1 µM, first compound 0.316 µM
[10] = second compound 0.1 µM, first compound 1 µM
[11] = second compound 0.1 µM, first compound 3.16 µM
[12] = second compound 0.1 µM, first compound 10 µM
[13] = second compound 0.316 µM, first compound 0.0316 µM
[14] = second compound 0.316 µM, first compound 0.1 µM
[15] = second compound 0.316 µM, first compound 0.316 µM
[16] = second compound 0.316 µM, first compound 1 µM
[17] = second compound 0.316 µM, first compound 3.16 µM
[18] = second compound 0.316 µM, first compound 10 µM
[19] = second compound 1 µM, first compound 0.0316 µM
[20] = second compound 1 µM, first compound 0.1 µM
[21] = second compound 1 µM, first compound 0.316 µM
[22] = second compound 1 µM, first compound 1 µM
[23] = second compound 1 µM, first compound 3.16 µM
[24] = second compound 1 µM, first compound 10 µM
[25] = second compound 3.16 µM, first compound 0.0316 µM
[26] = second compound 3.16 µM, first compound 0.1 µM
[27] = second compound 3.16 µM, first compound 0.316 µM
[28] = second compound 3.16 µM, first compound 1 µM
[29] = second compound 3.16 µM, first compound 3.16 µM
[30] = second compound 3.16 µM, first compound 10 µM
[31] = second compound 10 µM, first compound 0.0316 µM
[32] = second compound 10 µM, first compound 0.1 µM
[33] = second compound 10 µM, first compound 0.316 µM
[34] = second compound 10 µM, first compound 1 µM
[35] = second compound 10 µM, first compound 3.16 µM
[36] = second compound 10 µM, first compound 10 µM
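Also: spheroids exposed to agents for seven days before reading.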
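For viability, T/C in this document: 100% = DMSO vehicle control viability.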

Compound: CC(Nc1ccc2c(c1)OCCn1cc(N3C(=O)OCC3C(F)F)nc1-2)C(N)=O (centres undefined) + CNC(=O)c1ccc(Nc2nc(OC3CCCC3)c3c(-c4ccc5nc(C)oc5c4)c[nH]c3n2)c(OC)c1
- pIC50 (second compound 0.0316 µM): 7.25
- pIC50 (second compound 0.1 µM): > 7.50
- pIC50 (second compound 0.316 µM): > 7.50
- pIC50 (second compound 1 µM): > 7.50
- pIC50 (second compound 3.16 µM): > 7.50
- pIC50 (second compound 10 µM): > 7.50
- viability, T/C [1]: 63.3%
- viability, T/C [2]: 36.5%
- viability, T/C [3]: 15.6%
- viability, T/C [4]: 8.68%
- viability, T/C [5]: 6.12%
- viability, T/C [6]: 4.83%
- viability, T/C [7]: 31.9%
- viability, T/C [8]: 20.7%
- viability, T/C [9]: 11.4%
- viability, T/C [10]: 7.98%
- viability, T/C [11]: 5.53%
- viability, T/C [12]: 4.2%
- viability, T/C [13]: 24.7%
- viability, T/C [14]: 13.8%
- viability, T/C [15]: 7.07%
- viability, T/C [16]: 4.72%
- viability, T/C [17]: 3.59%
- viability, T/C [18]: 3.01%
- viability, T/C [19]: 16.8%
- viability, T/C [20]: 10.2%
- viability, T/C [21]: 5.1%
- viability, T/C [22]: 3.22%
- viability, T/C [23]: 3.05%
- viability, T/C [24]: 2.02%
- viability, T/C [25]: 17.7%
- viability, T/C [26]: 9.35%
- viability, T/C [27]: 4.79%
- viability, T/C [28]: 3.52%
- viability, T/C [29]: 2.61%
- viability, T/C [30]: 2.12%
- viability, T/C [31]: 18.6%
- viability, T/C [32]: 10.6%
- viability, T/C [33]: 6.17%
- viability, T/C [34]: 2.83%
- viability, T/C [35]: 3.46%
- viability, T/C [36]: 2.14%

Compound: C#Cc1c(F)ccc2cc(O)cc(-c3ncc4c(N5CC6CCC(C5)N6)nc(OCC56CCCN5CC(F)C6)nc4c3F)c12 (centres undefined) + CN1CCN(c2cc(C(=O)Nc3cc4cc(-c5cnn(C)c5)ccc4cn3)ccn2)CC1
- pIC50 (second compound 0.0316 µM): < 5.00
- pIC50 (second compound 0.1 µM): 5.49
- pIC50 (second compound 0.316 µM): > 7.50
- pIC50 (second compound 1 µM): > 7.50
- pIC50 (second compound 3.16 µM): > 7.50
- pIC50 (second compound 10 µM): > 7.50
- viability, T/C [1]: 76.1%
- viability, T/C [2]: 74.4%
- viability, T/C [3]: 65.5%
- viability, T/C [4]: 85.1%
- viability, T/C [5]: 81.1%
- viability, T/C [6]: 55%
- viability, T/C [7]: 53.6%
- viability, T/C [8]: 46.2%
- viability, T/C [9]: 53.2%
- viability, T/C [10]: 55.5%
- viability, T/C [11]: 49.3%
- viability, T/C [12]: 37%
- viability, T/C [13]: 28.3%
- viability, T/C [14]: 23.9%
- viability, T/C [15]: 25.2%
- viability, T/C [16]: 21.6%
- viability, T/C [17]: 24.8%
- viability, T/C [18]: 18%
- viability, T/C [19]: 2.18%
- viability, T/C [20]: 2.28%
- viability, T/C [21]: 3.15%
- viability, T/C [22]: 2.36%
- viability, T/C [23]: 1.66%
- viability, T/C [24]: 2.26%
- viability, T/C [25]: 0.79%
- viability, T/C [26]: 0.88%
- viability, T/C [27]: 0.86%
- viability, T/C [28]: 0.96%
- viability, T/C [29]: 0.86%
- viability, T/C [30]: 0.79%
- viability, T/C [31]: 0.25%
- viability, T/C [32]: 0.25%
- viability, T/C [33]: 0.2%
- viability, T/C [34]: 0.23%
- viability, T/C [35]: 0.23%
- viability, T/C [36]: 0.43%
